Measured values: US8536115B2, “Compositions and methods for modulating AMPA receptor-mediated excitotoxicity” (Centre for Addiction and Mental Health, priority 2006, dated 2013)
No end group written: not given here.

Key:
[1] = tested on: cultured rat hippocampal neurons; test: AMPAR-mediated cell death (PI fluorescence) in cultured rat hippocampal neurons; assay type: cell-based; details: 100 μM KA, 10 μM MK-801, 2 μM nimodipine, 1 hr; n=9
Procedure: (§1) Primary cultures from hippocampus were prepared from fetal Wistar rats (embryonic day 17-19) on Cell^+ (Sarstedt) culture dishes as previously described (73). The cultures were used for experiments on 12-15 d after plating. Hippocampal cultures were pretreated with GluR2 NT1-3-2 peptides before kainic acid treatment.
Cells were allowed to recover for 24 hours at 37° C. To quantify AMPA-mediated cell death, culture medium was replaced by extracellular solution containing 50 μg/ml of propidium iodide (PI) (Invitrogen). After 30 minutes incubation at 37° C., fluorescence intensity in each well was measured with a plate reader (Victor3; PerkinElmer). […]
To examine the GAPDH:AMPAR interactions in a relevant cellular milieu, primary cultures of rat hippocampal neurons were utilized in parallel experiments. We have previously shown in FIG. 21C that pre-incubating hippocampal neurons with the GluR2 NT1-3-2 peptide could disrupt the GAPDH-GluR2 interaction that was promoted by AMPAR activation. We subsequently examined if disruption of this interaction in hippocampal neurons could rescue cells from AMPAR-mediated cell death. AMPAR-mediated cell death was induced by pretreating neurons with kainic acid (KA; 100 μM, 1 hour) in the presence of NMDA receptor and Ca^2+ channel antagonists (10 μM MK-801 and 2 μM nimodipine, respectively).

[2] = tested on: GAPDH-p53 interaction; test: Co-immunoprecipitation of GAPDH with p53; assay type: cell-based; details: extracted nuclear proteins; AMPAR activation
Procedure: (§2) Protein affinity purification, in vitro binding, co-immunoprecipitation and Western blot analyses were performed as previously described (73, 79). Antibodies used for immunoprecipitation, Western blots and cell surface ELISA assays included GAPDH (polyclonal from Abcam, monoclonal from Chemicon), GluR2 (Western blots: Chemicon; immunoprecipitation: Upstate), HA (monoclonal, Covance), α-tubulin (monoclonal, Sigma-Aldrich), LaminB1 (Zymed Laboratories).
(§3) Nuclei isolation was prepared as described previously (55, 66). Briefly, cells were gently rinsed twice with ice-cold PBS. And scraped in 1 ml of solution 1 (10 mM Tris-HCl, pH7.4, 100 mM NaCl2, 2.5 mM MgCl2, 0.5% NP-40, proteinase inhibitor and PMSF) per 10-cm plate. Then cells were homogenized by four passages through a 25-gauge needle and spin at 3000 g briefly. Pellets containing nuclei were subsequently utilized in biochemical assays.
(§4) Thus, we tested whether GluR2NT and GAPDH can interact with p53 using affinity “pull down” purification experiments. […] To identify the p53 interacting domain on GAPDH, GST-fusion proteins encoding truncated fragments of GAPDH were constructed and used in affinity purification assays (FIG. 24D). […] Furthermore, we confirmed the essential role of I221-E250 in maintaining GAPDH-p53 coupling.

[3] = tested on: transfected HEK-293T cells; test: Cell-ELISA of cell surface GluR2 and GAPDH in transfected HEK-293T cells; assay type: cell-based; details: GluR1/GluR2; glutamate
Procedure: Cell-ELISA assays (colorimetric assays) were done essentially as previously described (82). […] Cells were incubated in 1% (W/V) glycine for 10 minutes at 4° C. to recover from the fixing. Cells were then incubated with a monoclonal antibody against specific antibodies for the purpose of labeling the receptors or proteins on the cell surface under non-permeabilized conditions or the entire receptor pool under permeabilized conditions. After incubation with corresponding HRP-conjugated secondary antibodies (Sigma-Aldrich), the HRP substrate o-phenylenediamine (Sigma-Aldrich Co) was added to produce a color reaction that was stopped with the equal volume of 3N HCl. Fluorescence intensity in each well was measured with a plate reader (Victor3; PerkinElmer). […] Afterwards, cells were scrapped from the dishes, and the protein concentration of each dish was measured. The results of cell surface expression of receptors or proteins were calibrated by the protein concentration of each well. Analysis was done using at least 9 separate wells in each group.

[4] = tested on: HEK-293T cells expressing GluR1/2; test: Quantification of AMPAR-mediated cell death (propidium iodide fluorescence) in HEK-293T cells expressing GluR1/2; assay type: cell-based; details: for attenuation/inhibition of AMPAR-mediated (glutamate-induced) cell death: pretreatment 10 μM, 1 hr, 300 μM glutamate, 25 μM CTZ, 24 hr, n=9
Procedure: (§5) Cells were allowed to recover for 24 hours at 37° C. To quantify AMPA-mediated cell death, culture medium was replaced by extracellular solution containing 50 μg/ml of propidium iodide (PI) (Invitrogen). After 30 minutes incubation at 37° C., fluorescence intensity in each well was measured with a plate reader (Victor3; PerkinElmer). […] Primary hippocampal neurons were exposed to 100 μM KA/25 μM cyclothiazide in medium at 37° C. for 1 hour, at 37° C.

[5] = tested on: HEK-293T cells expressing GluR1/3; test: GluR1/3 AMPAR-mediated cell death in HEK-293T cells; assay type: cell-based; details: pre-incubation; HEK-293T expressing GluR1/3
Procedure: as §5

[6] = tested on: nontransfected HEK-293T cells; test: Cell death in HEK-293T cells in the absence of GluR1/GluR2 co-expression; assay type: cell-based
Procedure: as §5

[7] = tested on: hippocampal neurons; test: Nuclear translocation of GAPDH and GluR2 in hippocampal neurons; assay type: cell-based, rat; details: peptide 10 μM, 1 hr; 100 μM KA, 10 μM MK-801, 2 μM nimodipine, 30 min
Procedure: as §1, §2, §3

[8] = tested on: hippocampal CA1 neurons; test: Four vessel occlusion ischemia model, cresyl violet-stained nuclei in CA1; assay type: in vivo, rat; details: 1 μM, 0.5 μl into hippocampus, 5-day recirculation
Procedure: In this study, a cannula (small diameter stainless steel tubes) was implanted in the animal one week before surgery. This cannula was used to deliver the peptide GluR2 NT1-3-2 (1 μM, 0.5 μl) into hippocampus where GAPDH-GluR2 interaction is considered to occur. On the surgery day, the four vessel occlusion ischemia model was performed in order to induce ischemia. Animals were treated with the peptide GluR2 NT1-3-2 either before (30 min) or after (2 hour) the induction of ischemia to examine the neuroprotective effect of the peptide. After a 5-day recirculation period, animals were decapitated, the brains were removed and dissected to harvest the hippocampus. Cresyl violet was used to stain alive neurons in hippocampus region of each animal. Cresyl violet-stained nuclei were observed by microscope and total number of stained nuclei in CA 1 region was summarized and normalized to the sham-operated group.

[9] = target: T1, GAPDH:AMPAR complex (Rattus norvegicus, UniProt P04797); test: Co-immunoprecipitation of GAPDH with GluR2 in primary cultures of rat hippocampal neurons; assay type: cell-based; details: preincubation 10 μM, 1 hour; 100 μM kainic acid, 30 min
T1 construct: endogenous in cells; host or cells: primary hippocampal neurons from fetal Wistar rats
T1 sequence (P04797 whole entry, one chain of several): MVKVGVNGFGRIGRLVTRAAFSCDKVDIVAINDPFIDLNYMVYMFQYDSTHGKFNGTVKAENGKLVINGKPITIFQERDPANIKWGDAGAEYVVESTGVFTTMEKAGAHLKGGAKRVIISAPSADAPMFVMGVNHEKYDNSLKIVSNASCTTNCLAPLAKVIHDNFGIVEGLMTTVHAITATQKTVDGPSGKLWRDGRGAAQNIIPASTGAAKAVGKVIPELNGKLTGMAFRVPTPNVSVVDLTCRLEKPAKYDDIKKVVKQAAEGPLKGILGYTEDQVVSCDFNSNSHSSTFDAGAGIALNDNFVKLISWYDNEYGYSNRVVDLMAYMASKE
Procedure: as §1, §2

[10] = tested on: HEK-293T cells cotransfected with GluR1/GluR2; test: Nuclear translocation of GAPDH and GluR2 in HEK-293T cells (nuclei, Western blot); assay type: cell-based; details: peptide 10 μM, 1 hr; glutamate 100 μM, 30 min
Procedure: as §2, §3

[11] = target: T2, GAPDH:AMPAR complex (Homo sapiens, UniProt P04406); test: Co-immunoprecipitation of GAPDH with GluR2 in HEK-293T cells expressing GluR1/GluR2; assay type: cell-based
T2 construct: It should be noted that HEK293T cells expresses endogenous GAPDH; expressed in transfected cells; host or cells: HEK-293T (GluR1 and GluR2 transfected; GAPDH endogenous)
T2 sequence (P04406 2-335 limits assumed, one chain of several): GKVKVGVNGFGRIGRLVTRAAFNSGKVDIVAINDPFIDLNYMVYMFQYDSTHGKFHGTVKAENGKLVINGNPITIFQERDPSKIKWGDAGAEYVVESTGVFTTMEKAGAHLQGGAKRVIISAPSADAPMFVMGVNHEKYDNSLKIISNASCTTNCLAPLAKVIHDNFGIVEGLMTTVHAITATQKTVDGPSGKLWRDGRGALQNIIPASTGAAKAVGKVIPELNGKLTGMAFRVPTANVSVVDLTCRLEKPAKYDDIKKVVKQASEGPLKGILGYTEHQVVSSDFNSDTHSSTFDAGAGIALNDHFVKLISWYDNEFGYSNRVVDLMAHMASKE
Procedure: as §2

[12] = target: T3, [35S]-GAPDH (Homo sapiens, UniProt P04406); test: In vitro binding (blot overlay) with [35S]-GAPDH probe; details: in vitro binding assay
T3 construct: made in house
T3 sequence (P04406 whole entry): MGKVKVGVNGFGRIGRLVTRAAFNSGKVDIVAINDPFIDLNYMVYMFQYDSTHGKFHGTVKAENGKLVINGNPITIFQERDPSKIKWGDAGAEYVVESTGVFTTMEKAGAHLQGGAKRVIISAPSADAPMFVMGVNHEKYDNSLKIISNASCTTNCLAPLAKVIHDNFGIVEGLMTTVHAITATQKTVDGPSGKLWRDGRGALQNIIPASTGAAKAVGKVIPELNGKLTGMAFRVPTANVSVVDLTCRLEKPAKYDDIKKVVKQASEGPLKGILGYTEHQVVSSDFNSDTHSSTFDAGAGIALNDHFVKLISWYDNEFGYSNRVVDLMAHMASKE
Procedure: as §2
In order to delineate the region of the GluR2NT involved in the interaction with the GAPDH, three GluR2NT GST-fusion proteins [GluR2 NTa V22-S271, (250 a.a), GluR2 NTb K272-421, (150 a.a), GluR2 NTc L422-E545, (124 a.a)] were constructed (FIG. 4A). In affinity purification assays, GluR2 NTa, but not GluR2 NTb, GluR2 NTc or GST alone precipitated GAPDH in rat hippocampal brain extract (FIG. 4B). […] To clarify the nature of the interaction, blot overlay experiments were performed, which provided in vitro evidence for a direct interaction. GluR2 NTa, GluR2 NTb and GluR2 NTc were probed with in vitro translated [35S]-methionine labelled peptides encoding GAPDH ([35S]-GAPDH). The [35S]-GAPDH probe bound with GluR2 NTa, but not GluR2 NTb or GluR2 NTc. […]

[13] = target: T4, GAPDH (Rattus norvegicus, UniProt P04797); test: Affinity purification of GAPDH from rat hippocampal extracts by GST-fusion proteins; assay type: binding; details: solubilized rat hippocampal extracts
T4 construct: from tissue; host or cells: detergent extracts of rat hippocampus
T4 sequence (P04797 whole entry, the tested form may be a part): as the sequence (P04797 whole entry, one chain of several) above
Procedure: as §2
We then further divided the GluR2 NTa3 region into 30 amino acids GST-fusion proteins and mini-genes (GluR2 NTa3-1: H122-E141, 20 a.a; GluR2 NT1-3-2 Y142-K172, 30 a.a) to delineate the region of GluR2 NTa3 involved in the interactions (FIG. 6A). GluR2 NT1-3-2, but not GluR2 NTa3-1 or GST alone, precipitated GAPDH in rat hippocampal extracts in affinity purification assays (FIG. 6B). This was also supported by a blot overlay experiment where [35S]-GAPDH probe bound with GluR2 NT1-3-2, but not GluR2 NTa3-1 or GST alone (FIG. 6C).

[14] = tested on: HEK-293T cells expressing NR1-1a/2A NMDA receptor; test: NR1-1a/2A NMDA receptor-mediated cell death in HEK-293T cells; assay type: cell-based; details: depletion of calcium with 5 mM EGTA; n=9
[15] = target: T5, p53 (Rattus norvegicus, UniProt P10361); test: Affinity pull down of p53 from rat hippocampal extracts by GST-GAPDH fragments; assay type: binding
T5 construct: from tissue; host or cells: solubilized nuclear proteins / extracts of rat hippocampus
T5 sequence (P10361 whole entry, the tested form may be a part): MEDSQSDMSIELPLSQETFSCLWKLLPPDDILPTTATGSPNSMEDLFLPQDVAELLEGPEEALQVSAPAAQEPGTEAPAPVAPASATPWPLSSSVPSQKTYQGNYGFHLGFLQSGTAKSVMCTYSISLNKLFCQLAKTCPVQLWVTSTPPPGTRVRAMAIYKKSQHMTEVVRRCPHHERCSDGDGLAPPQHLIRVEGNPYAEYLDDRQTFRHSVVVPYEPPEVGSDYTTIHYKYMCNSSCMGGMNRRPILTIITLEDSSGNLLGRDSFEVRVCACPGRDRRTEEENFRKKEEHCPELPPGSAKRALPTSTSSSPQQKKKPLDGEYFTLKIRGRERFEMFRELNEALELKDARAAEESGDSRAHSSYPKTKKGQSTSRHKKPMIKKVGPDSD
Procedure: as §2, §4

## GluR2 NT1-3-2 peptide: polypeptide of the GluR2 NT1-3-2 (Y142-K172) amino acid sequence (SEQ ID NO:1) (YYQWDKFAYLYDSDRGLSTLQAVLDSAAEKK; Y142-K172 of GluR2 subunit receptor from homo sapiens)
[1]
  inhibition of AMPAR-mediated cell death: 47.6±3.3%
[2]
  GAPDH-p53 interaction after peptide pretreatment: inhibited
[3]
  agonist-induced GAPDH internalization after preincubation of peptide: abolished
[4]; GluR1/2 transfected cells, no glutamate
  effect of the peptide itself on cell death in the absence of glutamate treatment: no effect
[4]
  attenuation/inhibition of AMPAR-mediated (glutamate-induced) cell death: 56±1.6%
[5]
  inhibition of GluR1/3 AMPAR-mediated (glutamate-induced) cell death: failed to inhibit
[6]
  effect of the peptide itself in the absence of GluR1/GluR2 co-expression: no effect
[7]
  nuclear translocation of GAPDH and GluR2: blocked
[8]; 30 min before ischemia
  neurons rescued from cell death, peptide treatment before ischemia: 18.2%
[8]; 2 hour after ischemia
  neurons rescued from cell death, peptide treatment after ischemia: 13.2%
[9]
  agonist-induced increase in GAPDH:AMPAR complex formation: significantly inhibited
[10]
  nuclear translocation of GAPDH and GluR2: blocked
[11]; preincubation 10 μM, 1 hour, 100 μM glutamate, 30 min
  agonist-induced increase in GAPDH:AMPAR complex formation: significantly inhibited

## GST-GluR2 NT1-3-2: GST-fusion protein of GluR2 NT1-3-2 Y142-K172 (YYQWDKFAYLYDSDRGLSTLQAVLDSAAEKK; not fully specified (N-terminus); also: GST fusion partner)
[12]
  binding of [35S]-GAPDH probe: bound
[13]
  affinity precipitation of GAPDH (Western blot): presence of GAPDH

## O=C(O)CN(CCOCCOCCN(CC(=O)O)CC(=O)O)CC(=O)O [EGTA, reference compound]
[14]
  inhibition of NR1-1a/2A NMDA receptor-mediated cell death: 38±3.6%
[4]; 5 mM EGTA
  GluR1/GluR2 AMPAR-mediated cell death on depletion of calcium: remained intact

## N[C@@H](CCC(=O)O)C(=O)O [Glutamate]
[11]
  CO-IP of GAPDH by the GluR2 subunit antibody on agonist activation: increase

## Cc1ccc(-c2cn3c4c(sc3n2)CCCC4)cc1 [cyclic PFT-α, reference compound]
[4]
  attenuation/inhibition of AMPAR-mediated (glutamate-induced) cell death: 49.8±8.3%
[5]
  inhibition of GluR1/3 AMPAR-mediated (glutamate-induced) cell death: failed to inhibit

## GST-GAPDH(2-2-1-1): GST-fusion protein encoding truncated GAPDH fragment I221-E250
[15]
  pull down of p53: specifically pulled down

## N#Cc1cc2c(cc1[N+](=O)[O-])=NC(=O)C(=O)N=2 [CNQX, 6-cyano-7-nitroquinoxaline-2,3-dione]
[11]; glutamate-activated AMPA receptor
  association between GAPDH and GluR2 with antagonist: decreased
